In brackets after ≈: the same amount, converted by molar mass.
Key:
[1] = Lipophilicity, change in log P of the compound; conditions: octanol/water
[2] = Oral bioavailability in Sprague-Dawley rat at 10 mg/kg; assay type: ADME, organism-based; conditions: in vivo
[3] = Clearance in Sprague-Dawley rat at 10 mg/kg, po; assay type: ADME, organism-based; design: dose 10 mg/kg, route oral; conditions: in vivo
[4] = Clearance in human liver microsomes at 3 uM by LC/MS/MS analysis; assay type: ADME
[5] = molecular target: T1, Tyrosine-protein kinase SYK (Homo sapiens, UniProt P43405)
Description: Inhibition of full length Syk (unknown origin) using biotinylated peptide substrate

[6] = molecular target: T1, Tyrosine-protein kinase SYK; remark: listed apart in the source
Description: Inhibition of Syk in antihuman IgM-stimulated human Ramos cells assessed as decrease in BCR-mediated BLNK phosphorylation by cellular assay

[7] = molecular target: T1, Tyrosine-protein kinase SYK; remark: listed apart in the source
Description: Inhibition of Syk in goat antihuman IgE-induced CD63 expression in human whole blood by FACS analysis

Cytochrome P450 1A2 = molecular target: T2, Cytochrome P450 1A2 (Homo sapiens, UniProt P05177); assay: Inhibition of CYP1A2 (unknown origin); assay type: ADME
T2 sequence (P05177 whole entry): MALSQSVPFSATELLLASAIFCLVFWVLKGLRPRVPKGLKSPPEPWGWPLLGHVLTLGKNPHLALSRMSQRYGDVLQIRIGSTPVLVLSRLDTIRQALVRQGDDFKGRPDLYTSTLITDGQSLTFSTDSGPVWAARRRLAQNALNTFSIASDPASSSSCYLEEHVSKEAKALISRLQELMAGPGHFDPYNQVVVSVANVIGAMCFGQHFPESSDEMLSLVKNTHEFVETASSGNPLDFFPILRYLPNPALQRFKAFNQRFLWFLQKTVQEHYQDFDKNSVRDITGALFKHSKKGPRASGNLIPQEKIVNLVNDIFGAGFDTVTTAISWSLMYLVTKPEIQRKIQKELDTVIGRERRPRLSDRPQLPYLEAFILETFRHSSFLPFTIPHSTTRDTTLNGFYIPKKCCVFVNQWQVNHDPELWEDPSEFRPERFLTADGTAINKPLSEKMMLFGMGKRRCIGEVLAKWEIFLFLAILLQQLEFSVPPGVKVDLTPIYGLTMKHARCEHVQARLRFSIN

[8] = Half life in rat liver microsomes at 3 uM by LC/MS/MS analysis; assay type: ADME
Rattus norvegicus [9] = assay: Antiinflammatory activity in po dosed Lewis rat collagen-induced arthritis model assessed as disease parameter measured as ankle inflammation treated twice daily on arthritic days 0 to 7 by histological analysis
[10] = Plasma protein binding in non-naive beagle dog at 1 mg/kg, po after 24 hrs by LC-MS/MS analysis; assay type: ADME, organism-based, Canis lupus familiaris; design: dose 1 mg/kg, route oral; conditions: read-out: PPB (converted)
[11] = Apparent permeability from apical to basolateral side in human Caco2 cells at 5 uM; assay type: ADME, cell-based; conditions: Caco-2
[12] = molecular target: Mast/stem cell growth factor receptor Kit (Mus musculus, UniProt P05532); assay: Inhibition of cKit in stem cell factor-stimulated bone marrow derived mouse mast cells assessed as phosphorylation after 1 hr incubation
Rattus norvegicus [13] = assay: Antiinflammatory activity in po dosed Lewis rat collagen-induced arthritis model assessed as disease parameter measured as peritosteal bone width treated twice daily on arthritic days 0 to 7 by histological analysis
[14] = Clearance in Sprague-Dawley rat at 0.4 mg/kg, iv; assay type: ADME, organism-based; design: dose 0.4 mg/kg, route intravenous; conditions: in vivo
Rattus norvegicus [15] = assay: Antiinflammatory activity in po dosed Lewis rat collagen-induced arthritis model assessed as disease parameter measured as ankle diameter treated twice daily on arthritic days 0 to 7
Rattus norvegicus [16] = assay: Antiinflammatory activity in po dosed Lewis rat collagen-induced arthritis model assessed as disease parameter measured as body weight treated twice daily on arthritic days 0 to 7
[17] = molecular target: Proto-oncogene tyrosine-protein kinase receptor Ret (Homo sapiens, UniProt P07949); assay: Inhibition of Ret in human […] cells assessed as assessed as phosphorylation after 1 hr incubation; assay type: cell-based
[18] = Solubility of the compound in crystalline form in simulated intestinal fluid under fasted condition; assay type: physicochemical
[19] = molecular target: Vascular endothelial growth factor receptor 2 (Homo sapiens, UniProt P35968); assay: Inhibition of KDR in VEGF-stimulated HUVEC assessed as phosphorylation after 1 hr incubation
Cytochrome P450 2C19 = Cytochrome P450 2C19 (Homo sapiens, UniProt P33261); assay: Inhibition of CYP2C19 (unknown origin); assay type: ADME
[20] = Oral bioavailability in non-naive beagle dog at 1 mg/kg; assay type: ADME, organism-based, Canis lupus familiaris; conditions: in vivo
[21] = Solubility of the compound in crystalline form in simulated intestinal fluid under fed condition; assay type: physicochemical
Cytochrome P450 2C9 = Cytochrome P450 2C9 (Homo sapiens, UniProt P11712); assay: Inhibition of CYP2C9 (unknown origin); assay type: ADME
[22] = Plasma protein binding in human at 1 mg/kg, po after 24 hrs by LC-MS/MS analysis; assay type: ADME, organism-based; design: dose 1 mg/kg, route oral; conditions: read-out: PPB (converted)
[23] = Clearance in non-naive beagle dog at 0.4 mg/kg, iv; assay type: ADME, organism-based, Canis lupus familiaris; design: dose 0.4 mg/kg, route intravenous; conditions: in vivo
[24] = molecular target: Tyrosine-protein kinase JAK2 (Homo sapiens, UniProt O60674); assay: Inhibition of Jak2 in erythropoietin-stimulated human TF1 cells assessed as assessed as phospho-Stat5 after 1 hr incubation; assay type: cell-based, TF-1
Cytochrome P450 2D6 = Cytochrome P450 2D6 (Homo sapiens, UniProt P10635); assay: Inhibition of CYP2D6 (unknown origin); assay type: ADME
[25] = Half life in human liver microsomes at 3 uM by LC/MS/MS analysis; assay type: ADME
[26] = Volume of distribution at steady state in Sprague-Dawley rat at 0.4 mg/kg, iv; assay type: ADME, organism-based; design: dose 0.4 mg/kg, route intravenous; conditions: in vivo, read-out: Vdss
Rattus norvegicus [27] = assay: Antiinflammatory activity in po dosed Lewis rat collagen-induced arthritis model assessed as disease parameter measured as knee inflammation treated twice daily on arthritic days 0 to 7 by histological analysis
[28] = Unbound fraction in human plasma; assay type: ADME, cell-free
[29] = Volume of distribution at steady state in non-naive beagle dog at 0.4 mg/kg, iv; assay type: ADME, organism-based, Canis lupus familiaris; design: dose 0.4 mg/kg, route intravenous; conditions: in vivo, read-out: Vdss
[30] = Apparent permeability from basolateral to apical side in human Caco2 cells at 5 uM; assay type: ADME, cell-based; conditions: Caco-2
[31] = molecular target: Tyrosine-protein kinase SYK (Rattus norvegicus, UniProt Q64725); assay: In vitro inhibition of Syk phosphorylation in rat whole blood; assay type: tissue-based
[32] = Oral bioavailability in Sprague-Dawley rat at 1 mg/kg; assay type: ADME, organism-based; conditions: in vivo
[33] = Plasma protein binding in Sprague-Dawley rat at 1 mg/kg, po after 24 hrs by LC-MS/MS analysis; assay type: ADME, organism-based; design: dose 1 mg/kg, route oral; conditions: read-out: PPB (converted)
[34] = Half life in dog liver microsomes at 3 uM by LC/MS/MS analysis; assay type: ADME, Canis lupus familiaris

Chain of Mast/stem cell growth factor receptor Kit (P05532 whole entry): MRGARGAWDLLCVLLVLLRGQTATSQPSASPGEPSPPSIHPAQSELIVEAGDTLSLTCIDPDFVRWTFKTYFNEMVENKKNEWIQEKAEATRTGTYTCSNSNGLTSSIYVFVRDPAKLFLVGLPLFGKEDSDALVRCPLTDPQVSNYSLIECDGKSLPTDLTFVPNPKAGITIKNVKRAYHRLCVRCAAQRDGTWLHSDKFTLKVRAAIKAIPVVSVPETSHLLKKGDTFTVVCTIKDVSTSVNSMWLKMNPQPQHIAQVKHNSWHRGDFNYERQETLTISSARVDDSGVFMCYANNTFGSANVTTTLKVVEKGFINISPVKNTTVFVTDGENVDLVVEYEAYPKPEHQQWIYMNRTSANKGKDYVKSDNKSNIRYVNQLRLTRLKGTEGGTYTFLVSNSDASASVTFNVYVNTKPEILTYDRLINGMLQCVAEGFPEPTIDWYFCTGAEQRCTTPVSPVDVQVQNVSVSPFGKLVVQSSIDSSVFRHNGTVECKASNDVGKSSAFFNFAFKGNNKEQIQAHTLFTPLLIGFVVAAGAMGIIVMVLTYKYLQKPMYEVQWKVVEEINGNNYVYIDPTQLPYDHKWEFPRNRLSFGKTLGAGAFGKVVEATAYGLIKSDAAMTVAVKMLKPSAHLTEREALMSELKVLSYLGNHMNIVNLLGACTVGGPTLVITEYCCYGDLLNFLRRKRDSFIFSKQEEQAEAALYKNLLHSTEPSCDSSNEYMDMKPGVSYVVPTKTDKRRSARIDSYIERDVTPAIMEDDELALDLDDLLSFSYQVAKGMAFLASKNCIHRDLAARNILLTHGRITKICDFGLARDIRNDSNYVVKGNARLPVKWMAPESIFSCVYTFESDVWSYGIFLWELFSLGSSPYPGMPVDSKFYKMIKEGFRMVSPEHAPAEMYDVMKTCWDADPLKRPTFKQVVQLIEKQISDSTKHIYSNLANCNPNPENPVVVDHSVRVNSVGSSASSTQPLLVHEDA
Chain of Tyrosine-protein kinase JAK2 (O60674 whole entry): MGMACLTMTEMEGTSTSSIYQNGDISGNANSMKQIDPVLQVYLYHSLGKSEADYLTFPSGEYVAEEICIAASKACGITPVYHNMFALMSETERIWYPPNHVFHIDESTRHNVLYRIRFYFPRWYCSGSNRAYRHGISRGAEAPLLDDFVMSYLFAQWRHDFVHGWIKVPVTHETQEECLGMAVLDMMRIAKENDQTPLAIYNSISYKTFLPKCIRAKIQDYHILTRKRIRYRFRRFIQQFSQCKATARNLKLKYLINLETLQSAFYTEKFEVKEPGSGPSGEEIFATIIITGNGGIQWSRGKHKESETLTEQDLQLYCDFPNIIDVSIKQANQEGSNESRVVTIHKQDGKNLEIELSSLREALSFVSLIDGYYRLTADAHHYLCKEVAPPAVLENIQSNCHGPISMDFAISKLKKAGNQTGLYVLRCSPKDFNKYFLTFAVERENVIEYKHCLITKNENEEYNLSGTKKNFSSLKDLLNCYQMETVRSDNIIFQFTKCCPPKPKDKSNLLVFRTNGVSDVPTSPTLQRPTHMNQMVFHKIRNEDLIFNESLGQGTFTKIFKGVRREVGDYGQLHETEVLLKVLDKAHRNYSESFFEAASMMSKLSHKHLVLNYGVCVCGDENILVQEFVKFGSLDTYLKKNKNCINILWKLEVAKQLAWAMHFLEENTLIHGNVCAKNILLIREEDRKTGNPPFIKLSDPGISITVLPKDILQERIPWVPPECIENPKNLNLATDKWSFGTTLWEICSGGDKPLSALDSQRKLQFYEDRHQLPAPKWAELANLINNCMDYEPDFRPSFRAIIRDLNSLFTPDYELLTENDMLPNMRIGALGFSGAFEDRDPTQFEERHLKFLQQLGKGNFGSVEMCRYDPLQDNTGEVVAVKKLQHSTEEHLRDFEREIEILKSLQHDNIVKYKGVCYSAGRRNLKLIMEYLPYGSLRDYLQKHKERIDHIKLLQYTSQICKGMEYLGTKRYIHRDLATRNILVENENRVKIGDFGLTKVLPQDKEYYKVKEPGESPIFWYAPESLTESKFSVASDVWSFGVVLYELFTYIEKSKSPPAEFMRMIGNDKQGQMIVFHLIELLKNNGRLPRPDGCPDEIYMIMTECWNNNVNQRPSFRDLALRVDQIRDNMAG
Chain of Cytochrome P450 2C9 (P11712 whole entry): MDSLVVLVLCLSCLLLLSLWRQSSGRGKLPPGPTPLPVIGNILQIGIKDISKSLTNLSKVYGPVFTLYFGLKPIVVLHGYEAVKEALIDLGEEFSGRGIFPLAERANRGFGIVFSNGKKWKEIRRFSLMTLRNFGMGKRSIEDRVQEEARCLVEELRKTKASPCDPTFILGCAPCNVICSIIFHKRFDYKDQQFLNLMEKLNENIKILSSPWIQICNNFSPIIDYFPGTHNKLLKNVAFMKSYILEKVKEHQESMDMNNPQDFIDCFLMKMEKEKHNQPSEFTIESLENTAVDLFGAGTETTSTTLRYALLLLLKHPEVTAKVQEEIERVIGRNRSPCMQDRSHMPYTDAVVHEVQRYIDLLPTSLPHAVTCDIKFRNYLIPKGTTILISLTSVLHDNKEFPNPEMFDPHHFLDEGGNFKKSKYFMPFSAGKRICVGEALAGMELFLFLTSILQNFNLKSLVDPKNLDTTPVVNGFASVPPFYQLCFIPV
Chain of Cytochrome P450 2C19 (P33261 whole entry): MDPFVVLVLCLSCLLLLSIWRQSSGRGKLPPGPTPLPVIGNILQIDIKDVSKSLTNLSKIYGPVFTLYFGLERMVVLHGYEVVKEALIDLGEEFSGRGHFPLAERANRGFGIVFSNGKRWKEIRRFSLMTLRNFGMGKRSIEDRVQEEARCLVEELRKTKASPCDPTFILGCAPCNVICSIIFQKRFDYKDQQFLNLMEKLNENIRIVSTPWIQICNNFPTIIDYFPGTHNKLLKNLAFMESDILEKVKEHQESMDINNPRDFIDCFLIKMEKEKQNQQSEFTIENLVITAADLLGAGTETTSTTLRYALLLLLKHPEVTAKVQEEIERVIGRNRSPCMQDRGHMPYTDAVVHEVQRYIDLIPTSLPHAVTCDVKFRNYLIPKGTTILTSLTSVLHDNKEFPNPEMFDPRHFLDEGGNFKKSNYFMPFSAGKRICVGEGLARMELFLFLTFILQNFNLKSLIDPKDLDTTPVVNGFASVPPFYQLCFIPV
Chain of Tyrosine-protein kinase SYK (Rattus norvegicus, UniProt Q64725) (Q64725 whole entry): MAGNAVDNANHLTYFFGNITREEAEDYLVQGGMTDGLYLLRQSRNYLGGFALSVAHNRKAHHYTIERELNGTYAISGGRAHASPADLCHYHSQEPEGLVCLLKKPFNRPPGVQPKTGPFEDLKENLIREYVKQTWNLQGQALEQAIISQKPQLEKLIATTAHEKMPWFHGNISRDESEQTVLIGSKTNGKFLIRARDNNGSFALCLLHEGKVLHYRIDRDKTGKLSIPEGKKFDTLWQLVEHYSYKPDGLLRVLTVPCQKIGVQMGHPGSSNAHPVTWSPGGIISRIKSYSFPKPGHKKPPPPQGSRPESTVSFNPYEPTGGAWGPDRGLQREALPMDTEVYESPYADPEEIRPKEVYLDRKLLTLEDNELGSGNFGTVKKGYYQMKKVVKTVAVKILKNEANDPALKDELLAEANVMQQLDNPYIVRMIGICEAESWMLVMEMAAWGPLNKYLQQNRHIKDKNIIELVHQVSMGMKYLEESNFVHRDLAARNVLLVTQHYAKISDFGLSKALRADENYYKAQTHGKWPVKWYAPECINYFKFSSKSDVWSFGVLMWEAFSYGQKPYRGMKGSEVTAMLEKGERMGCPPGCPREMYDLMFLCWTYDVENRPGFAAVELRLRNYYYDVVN
Chain of Cytochrome P450 2D6 (P10635 whole entry): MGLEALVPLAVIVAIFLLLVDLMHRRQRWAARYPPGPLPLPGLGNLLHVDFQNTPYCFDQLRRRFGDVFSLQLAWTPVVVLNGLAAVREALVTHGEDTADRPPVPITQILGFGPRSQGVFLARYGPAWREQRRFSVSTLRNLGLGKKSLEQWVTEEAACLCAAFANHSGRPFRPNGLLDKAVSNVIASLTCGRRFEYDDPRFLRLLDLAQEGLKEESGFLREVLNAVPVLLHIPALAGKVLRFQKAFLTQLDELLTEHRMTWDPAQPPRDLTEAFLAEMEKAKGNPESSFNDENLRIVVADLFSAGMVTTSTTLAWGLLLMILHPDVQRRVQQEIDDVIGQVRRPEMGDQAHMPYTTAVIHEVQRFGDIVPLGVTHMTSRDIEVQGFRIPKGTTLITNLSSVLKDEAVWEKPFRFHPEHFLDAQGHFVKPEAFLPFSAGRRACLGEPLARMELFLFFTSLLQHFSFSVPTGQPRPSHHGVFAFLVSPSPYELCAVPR

SMILES: COc1ccc(Nc2nc(-c3ccc(C(N)=O)cc3)cn3ccnc23)cc1OC
- ΔlogP [1]: 1.4
- bioavailability [2]: 22%
- CL/F [3]: 50.8 mL/min/kg

SMILES: COc1ccc(Nc2nc(-c3cccc(C(N)=O)c3)cn3ccnc23)cc1OC
- ΔlogP [1]: 1.4

SMILES: COc1ccc(Nc2nc(-c3ccc4cn[nH]c4c3)cn3ccnc23)cc1OC
- bioavailability [2]: 36%
- CL/F [3]: 35 mL/min/kg

SMILES: c1ccc(Nc2nc(-c3ccc4cn[nH]c4c3)cn3ccnc23)cc1
- CLhep predicted at 3 µM [4]: 8.17 mL/min/kg

SMILES: COc1cccc(Nc2nc(-c3ccc4cn[nH]c4c3)cn3ccnc23)c1
- IC50 [5]: 8.5 nM
- EC50 [6]: 374 nM

SMILES: CC1(O)CN(c2ccc(Nc3nc(-c4ccc5cn[nH]c5c4)cn4ccnc34)cc2)C1
- IC50 [5]: 3.9 nM
- EC50 [6]: 80 nM
- EC50 [7]: 1260 nM

SMILES: CC1(O)CCN(c2ccc(Nc3nc(-c4ccc5cn[nH]c5c4)cn4ccnc34)cc2)CC1
- CLhep predicted at 3 µM [4]: 4.5 mL/min/kg

SMILES: O=S1(=O)CCN(c2ccc(Nc3nc(-c4ccc5cn[nH]c5c4)cn4ccnc34)cc2)CC1
- IC50 [5]: 2.1 nM
- EC50 [6]: 40 nM
- EC50 [7]: > 10000 nM
- CLhep predicted at 3 µM [4]: 10 mL/min/kg

SMILES: c1cn2cc(-c3ccc4cn[nH]c4c3)nc(Nc3ccc(C4CCOCC4)cc3)c2n1
- IC50 [5]: 3.8 nM
- EC50 [6]: 2370 nM
- EC50 [7]: > 10000 nM
- CLhep predicted at 3 µM [4]: 2 mL/min/kg

SMILES: CN(CCO)c1ccc(Nc2nc(-c3ccc4cn[nH]c4c3)cn3ccnc23)cc1
- IC50 [5]: 7.6 nM
- EC50 [6]: 42 nM
- EC50 [7]: 1090 nM

SMILES: c1cn2cc(-c3ccc4cn[nH]c4c3)nc(Nc3ccc(N4CCCOCC4)cc3)c2n1
- IC50 [5]: 23.1 nM
- EC50 [6]: 73 nM
- CLhep predicted at 3 µM [4]: 5 mL/min/kg

SMILES: COc1cc(Nc2nc(-c3ccc4cn[nH]c4c3)cn3ccnc23)ccc1N1CCOCC1
- CLhep predicted at 3 µM [4]: 12.5 mL/min/kg

SMILES: c1cn2cc(-c3ccc4cn[nH]c4c3)nc(Nc3ccc(N4CCOCC4)cc3)c2n1 [ENTOSPLETINIB]
- IC50 (Cytochrome P450 1A2): > 10000 nM
- half-life at 3 µM [8]: 35 min
- ED50 (Rattus norvegicus [9]): 2.8 mg/kg
- fraction unbound at 24 h [10]: 0.072
- Papp A→B at 5 µM [11]: 3.2 ×10⁻⁶ cm/s
- EC50 [12]: 445 nM
- ED50 (Rattus norvegicus [13]): 3 mg/kg
- clearance [14]: 4.5 mL/min/kg
- ED50 (Rattus norvegicus [15]): 2.1 mg/kg
- ED50 (Rattus norvegicus [16]): 3.9 mg/kg
- EC50 [17]: > 1000 nM
- solubility [18]: 2 µM (≈ 0.823 µg/mL)
- EC50 [19]: > 1000 nM
- IC50 (Cytochrome P450 2C19): > 10000 nM
- bioavailability [20]: 53%
- solubility [21]: 16 µM (≈ 6.58 µg/mL)
- IC50 (Cytochrome P450 2C9): > 10000 nM
- fraction unbound at 24 h [22]: 0.029
- clearance [23]: 13.3 mL/min/kg
- EC50 [24]: 453 nM
- IC50 (Cytochrome P450 2D6): > 10000 nM
- half-life at 3 µM [25]: 98.6 min
- Vd [26]: 0.52 L/kg
- ED50 (Rattus norvegicus [27]): 1.2 mg/kg
- fraction unbound [28]: 0.027
- Vd [29]: 1.41 L/kg
- Papp B→A at 5 µM [30]: 1.95 ×10⁻⁶ cm/s
- CLhep predicted at 3 µM [4]: 4.83 mL/min/kg
- EC50 [31]: 1900 nM
- bioavailability [32]: 67%
- fraction unbound at 24 h [33]: 0.008
- half-life at 3 µM [34]: 23.4 min

SMILES: COc1cc(Nc2ncc(F)c(Nc3ccc4c(n3)NC(=O)C(C)(C)O4)n2)cc(OC)c1OC [R-406]
- EC50 [12]: 46 nM

Source: ChEMBL document CHEMBL3259702, “Discovery of GS-9973, a selective and orally efficacious inhibitor of spleen tyrosine kinase” (J Med Chem, 2014)
